According to patent US20250129103A1, “METHODS FOR TREATMENT OF CANCER” (Frontier Medicines Corporation, priority 2022, published 2025):
In brackets after ≈: the same amount, converted by molar mass.

Assays:
[1] = target: KRAS G12C (GMPPNP-loaded) and cRAF (Ras-binding domain) interaction (Homo sapiens (Human), UniProt P01116, C118S/C51S/C80L/G12C); experiment: Inhibition of KRAS G12C and cRAF binding (AlphaScreen); details: KRAS G12C loaded with GMPPNP, cRaf RBD, 2 hours preincubation; read-out: Raf-1 RBD K-Ras IC50
Method: Compounds were diluted in 100% DMSO and each compound concentration was spotted at 200 nl/well onto low volume, white 384 well plates. […] KRAS G12C was preloaded with the GTP analogue Guanosine 5′-[β,γ-imido]triphosphate (GMPPNP). The KRAS G12C was diluted in 25 mM Hepes, pH 7.4, 150 mM NaCl, 5 mM MgCl2, 0.01% TritonX-100 and 10 μM GMPPNP and added at 10 ul/well to compound-spotted plates resulting in a DMSO concentration of 2%. Plates were incubated for 2 hours. A mixture of RBD and the AlphaScreen streptavidin donor and glutathione acceptor beads diluted in 25 mM Hepes, pH 7.4, 150 mM NaCl, 5 mM MgCl2, 0.01% TritonX-100 and 2% DMSO was then added at 10 ul/well and incubated for 60-90 minutes before the samples were read for emission at 570 nm after excitation of the donor beads at 680 nm. All incubations were performed at room temperature. The final top compound concentration was 50 μM with 1:3 titrations for 10-point dose response curves. […] IC50S were determined using nonlinear regression fit of [inhibitor] vs. response (4 parameters). […]

[2] = Determination of logD (1-octanol / phosphate buffer pH 7.4); type: physicochemical; details: for logD: 1-octanol/phosphate buffer, pH 7.4, pH 7.4, 1-octanol/phosphate buffer, read-out: Log D, pH 7.4
Method: Preparation of phosphate buffer saturated with 1-octanol: 10 mL of 100 mM phosphate buffer (pH 7.4) was added to 100 mL of 1-octanol. The mixture was shaken vigorously and left to stand at room temperature overnight.
Preparation of 1-octanol saturated with phosphate buffer: 10 mL of 1-octanol was added to 100 mL of 100 mM phosphate buffer (pH 7.4). The mixture was shaken vigorously and left to stand at room temperature overnight.
149 μL of phosphate buffer saturated with 1-octanol was added into 1st sample tube. 149 μL of 1-octanol saturated with phosphate buffer was added into the 2nd sample tube. The sample tubes were mixed vigorously and shaken for 1 hour at a speed of 800 rpm at room temperature. The sample tubes were subjected to centrifugation at 4000 rpm for 5 minutes at room temperature. Samples of the supernatant were taken from both tubes, diluted with an appropriate LCMS buffer, and analyzed on an LCMS instrument. LogD was calculated according to the following equation.

[3] = Determination of kinetic solubility (pH 7.4); type: physicochemical; details: for solubility kinetic at 2 h: phosphate buffer, pH 7.4, aqueous buffer, kinetic from dmso stock, 50 mM phosphate buffer pH 7.4, read-out: Ksol, pH 7.4
Method: 490 μL of a 50 mM phosphate buffer (pH 7.4) was added to the sample solution. The mixture was vortexed for at least 2 minutes. The vial was shaken on a Barnstead shaker at 800 rpm at room temperature for 2 hours. The vial was centrifuged at 4000 rpm for 20 minutes. The Mini-UniPrep vial was compressed to prepare a filtrate, which was injected into an HPLC-UV and LC-MS/MS system. Kinetic solubility was calculated by referencing sample peak areas to a standard calibration curve.

KRAS G12C (GMPPNP-loaded) and cRAF (Ras-binding domain) interaction, sequence (P01116 other isoform, or with tags, fused parts or gaps G12C/C51S/C80L/C118S): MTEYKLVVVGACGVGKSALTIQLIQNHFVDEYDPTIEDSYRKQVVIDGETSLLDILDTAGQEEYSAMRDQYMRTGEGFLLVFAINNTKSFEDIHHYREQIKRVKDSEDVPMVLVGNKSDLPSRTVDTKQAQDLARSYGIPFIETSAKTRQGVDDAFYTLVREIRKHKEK

Structure (SMILES): N#CC[C@H]1CN(c2nc(OCC34CCCN3CCC4)nc3c2CCN(c2cccc4cccc(Cl)c24)C3)CCN1C(=O)/C=C/c1nc([C@H]2C[C@@H]2F)no1 [Compound 36]
- IC50 [1]: 10 to 100 nM
- logD [2]: 3.98
- solubility kinetic at 2 h [3]: 2.62 µg/mL (≈ 3.55 µM)

Structure (SMILES): N#CC[C@H]1CN(c2nc(OC[C@@]34CCCN3C[C@H](F)C4)nc3c(F)c(-c4cccc5cccc(Cl)c45)ncc23)CCN1C(=O)/C=C/CN1CC[C@@H]2COC[C@H]21 [Compound 298]
- IC50 [1]: < 10 nM
- logD [2]: 2.99
- solubility kinetic at 2 h [3]: 118 µg/mL (≈ 153 µM)

Structure (SMILES): N#CC[C@H]1CN(c2nc(OC[C@@]34CCCN3C[C@H](F)C4)nc3c(F)c(-c4cccc5cccc(Cl)c45)ncc23)CCN1C(=O)/C=C/CN1C[C@H]2CC[C@@H]1CO2 [Compound 258]
- IC50 [1]: < 10 nM
- logD [2]: 2.81
- solubility kinetic at 2 h [3]: 169 µg/mL (≈ 219 µM)

Structure (SMILES): N#CC[C@H]1CN(c2nc(OC[C@@]34CCCN3C[C@H](F)C4)nc3c(F)c(-c4cccc(Cl)c4C4CC4)ncc23)CCN1C(=O)/C=C/[C@H]1CCN1C1CC1 [Compound 314]
- IC50 [1]: < 10 nM
- logD [2]: 4.05
- solubility kinetic at 2 h [3]: 32.3 µg/mL (≈ 44.2 µM)

Structure (SMILES): N#CC[C@H]1CN(c2nc(OC[C@@]34CCCN3C[C@H](F)C4)nc3c2CCN(c2cccc4cccc(Cl)c24)C3)CCN1C(=O)/C=C/c1nc([C@H]2C[C@@H]2F)no1 [Compound 37]
- IC50 [1]: 10 to 100 nM
- logD [2]: 4.85
- solubility kinetic at 2 h [3]: 0.01 µg/mL (≈ 0.0132 µM)

Structure (SMILES): Cc1nccc(/C=C/C(=O)N2CCN(c3nc(OC[C@@]45CCCN4C[C@H](F)C5)nc4c(F)c(-c5nc(N)cc6cccc(F)c56)ncc34)C[C@@H]2CC#N)n1 [Compound 146]
- IC50 [1]: < 10 nM
- logD [2]: 2.14
- solubility kinetic at 2 h [3]: 78.1 µg/mL (≈ 106 µM)

Structure (SMILES): Cc1noc(/C=C/C(=O)N2CCN(c3nc(OCC45CCCN4CCC5)nc4c3CCN(c3cccc5cccc(Cl)c35)C4)C[C@@H]2CC#N)n1 [Compound 28]
- IC50 [1]: 100 to 500 nM
- Log D, pH 7.4 ([2]; pH 7.4, 1-octanol/phosphate buffer): 3.22
- Ksol, pH 7.4 (ug/mL) ([3]; 50 mM phosphate buffer pH 7.4): 43.66 ug/mL

Structure (SMILES): Cc1nccc(/C=C/C(=O)N2CCN(c3nc(OC[C@@]45CCCN4C[C@H](F)C5)nc4c(F)c(-c5cccc6ccc(F)c(C)c56)ncc34)C[C@@H]2CC#N)n1 [Compound 254]
- IC50 [1]: < 10 nM
- logD [2]: 3.79
- solubility kinetic at 2 h [3]: 4.99 µg/mL (≈ 6.8 µM)

Structure (SMILES): N#CC[C@H]1CN(c2nc(OC[C@@]34CCCN3C[C@H](F)C4)nc3c(F)c(-c4cccc5cccc(Cl)c45)ncc23)CCN1C(=O)/C=C/CN1CCCOCC1 [Compound 109, 2-((S)-1-((E)-4-(1,4-oxazepan-4-yl)but-2-enoyl)-4-(7-(8-chloronaphthalen-1-yl)-8-fluoro-2-(((2R,7aS)-2-fluorohexahydro-1H-pyrrolizin-7a-yl)methoxy)pyrido[4,3-d]pyrimidin-4-yl)piperazin-2-yl)acetonitrile]
- IC50 [1]: < 10 nM
- logD [2]: 2.6
- solubility kinetic at 2 h [3]: 127 µg/mL (≈ 167 µM)

Structure (SMILES): CC(C)(C)c1noc(/C=C/C(=O)N2CCN(c3nc(OCC45CCCN4CCC5)nc4c(F)c(-c5cccc6cccc(Cl)c56)ncc34)C[C@@H]2CC#N)n1 [Compound 33]
- IC50 [1]: 100 to 500 nM
- logD [2]: 3.73
- solubility kinetic at 2 h [3]: 50 µg/mL (≈ 66.7 µM)

Structure (SMILES): CC(C)c1noc(/C=C/C(=O)N2CCN(c3nc(OCC45CCCN4CCC5)nc4c(F)c(-c5cccc6cccc(Cl)c56)ncc34)C[C@@H]2CC#N)n1 [Compound 120]
- IC50 [1]: 100 to 500 nM
- logD [2]: 3.21
- solubility kinetic at 2 h [3]: 26.5 µg/mL (≈ 36 µM)

Structure (SMILES): N#CC[C@H]1CN(c2nc(OCC34CCCN3CCC4)nc3c2CCN(c2cccc4cccc(Cl)c24)C3)CCN1C(=O)/C=C/CN1CCS(=O)(=O)CC1 [Compound 169]
- IC50 [1]: 10 to 100 nM
- logD [2]: 2.02
- solubility kinetic at 2 h [3]: 108 µg/mL (≈ 142 µM)

Structure (SMILES): N#CC[C@H]1CN(c2nc(OCC34CCCN3CCC4)nc3c(F)c(-c4cccc5ccc(F)c(Cl)c45)ncc23)CCN1C(=O)/C=C/CN1C[C@H]2C[C@@H]1CO2 [Compound 183]
- IC50 [1]: < 10 nM
- logD [2]: 1.48
- solubility kinetic at 2 h [3]: 110 µg/mL (≈ 146 µM)

Structure (SMILES): N#CC[C@H]1CN(c2nc(OC[C@@]34CCCN3C[C@H](F)C4)nc3c(F)c(-c4nc(N)cc5cccc(F)c45)ncc23)CCN1C(=O)/C=C/CN1CCOCC1 [Compound 60]
- IC50 [1]: < 10 nM
- logD [2]: 1.08
- solubility kinetic at 2 h [3]: 94.8 µg/mL (≈ 128 µM)

Structure (SMILES): Cc1nsc(/C=C/C(=O)N2CCN(c3nc(OC[C@@]45CCCN4C[C@H](F)C5)nc4c3C[C@H](C)[C@@H](c3nc(N)cc(C)c3C(F)(F)F)C4)C[C@@H]2CC#N)n1 [Compound 203]
- IC50 [1]: 10 to 100 nM
- logD [2]: 4.59
- solubility kinetic at 2 h [3]: 0.01 µg/mL (≈ 0.0132 µM)

Structure (SMILES): N#CC[C@H]1CN(c2nc(OC[C@@]34CCCN3C[C@H](F)C4)nc3c(F)c(-c4ccccc4C(F)F)ncc23)CCN1C(=O)/C=C/CN1[C@@H]2CC[C@H]1COC2 [Compound 289]
- IC50 [1]: 10 to 100 nM
- logD [2]: 2.16
- solubility kinetic at 2 h [3]: 140 µg/mL (≈ 190 µM)

Structure (SMILES): N#CC[C@H]1CN(c2nc(OCC34CCCN3CCC4)nc3c2CCN(c2cccc4cccc(Cl)c24)C3)CCN1C(=O)/C=C/CN1CC(F)C1 [Compound 201]
- IC50 [1]: 10 to 100 nM
- logD [2]: 2.76
- solubility kinetic at 2 h [3]: 119 µg/mL (≈ 171 µM)

Structure (SMILES): N#CC[C@H]1CN(c2nc(OC[C@@]34CCCN3C[C@H](O)C4)nc3c(F)c(-c4cccc5ccc(F)c(Cl)c45)ncc23)CCN1C(=O)/C=C/CN1CCOCC1 [Compound 321]
- IC50 [1]: < 10 nM
- logD [2]: 1.52
- solubility kinetic at 2 h [3]: 162 µg/mL (≈ 214 µM)

Structure (SMILES): Cc1cc(N)nc(C2Cc3nc(OC[C@@]45CCCN4C[C@H](F)C5)nc(N4CCN(C(=O)/C=C/CN5CCOCC5)[C@@H](CC#N)C4)c3CC2C)c1C(F)(F)F (mixture of isomers) [Example 67, 2-((2S)-4-(7-(6-amino-4-methyl-3-(trifluoromethyl)pyridin-2-yl)-2-(((2R,7aS)-2-fluorotetrahydro-1H-pyrrolizin-7a(5H)-yl)methoxy)-6-methyl-5,6,7,8-tetrahydroquinazolin-4-yl)-1-((E)-4-morpholinobut-2-enoyl)piperazin-2-yl)acetonitrile]
- IC50 [1]: 10 to 100 nM
- logD [2]: 2.98

Structure (SMILES): N#CC[C@H]1CN(c2nc(OCC34CCCN3CCC4)nc3c(F)c(-c4cccc5cccc(Cl)c45)ncc23)CCN1C(=O)/C=C/CN1CCOCC1 [Compound 149]
- IC50 [1]: 10 to 100 nM
- solubility kinetic at 2 h [3]: 106 µg/mL (≈ 147 µM)

Structure (SMILES): Cc1cc(N)nc(C2Cc3nc(OC[C@@]45CCCN4C[C@H](F)C5)nc(N4CCN(C(=O)/C=C/C5CCN5C)[C@@H](CC#N)C4)c3CC2C)c1C(F)(F)F (stereo partly drawn) [Example 68, 2-((2S)-4-(7-(6-amino-4-methyl-3-(trifluoromethyl)pyridin-2-yl)-2-(((2R,7aS)-2-fluorohexahydro-1H-pyrrolizin-7a-yl)methoxy)-6-methyl-5,6,7,8-tetrahydroquinazolin-4-yl)-1-((E)-3-(1-methylazetidin-2-yl)acryloyl)piperazin-2-yl)acetonitrile]
- solubility kinetic at 2 h [3]: 102 µg/mL (≈ 140 µM)

Structure (SMILES): Cc1cc(N)nc(C2Cc3nc(OC[C@@]45CCCN4C[C@H](F)C5)nc(N4CCN(C(=O)/C=C/CN5CCOCC5)[C@@H](CC#N)C4)c3CC2C)c1C(F)(F)F (stereo partly drawn) [Example 67, 2-((2S)-4-(7-(6-amino-4-methyl-3-(trifluoromethyl)pyridin-2-yl)-2-(((2R,7aS)-2-fluorotetrahydro-1H-pyrrolizin-7a(5H)-yl)methoxy)-6-methyl-5,6,7,8-tetrahydroquinazolin-4-yl)-1-((E)-4-morpholinobut-2-enoyl)piperazin-2-yl)acetonitrile]
- solubility kinetic at 2 h [3]: 78.2 µg/mL (≈ 103 µM)

Structure (SMILES): Cc1nccc(/C=C/C(=O)N2CCN(c3nc(OCC45CCCN4CCC5)nc4c(F)c(-c5cccc6ccc(F)c(Cl)c56)ncc34)C[C@@H]2CC#N)n1 [Compound 155]
- IC50 [1]: < 10 nM
- solubility kinetic at 2 h [3]: 89.1 µg/mL (≈ 121 µM)
